Consider two compounds from patent US11034993B2, “Assay to measure factor Xa inhibitors” (McMaster University, priority 2018, dated 2021).

What all share (format): biochemical
Assay [1] has as its target T1, FXa (Homo sapiens, UniProt P00742). Put plainly: Rate of Flu-II cleavage by residual FXa in normal human pooled plasma. As to conditions: rivaroxaban 0 to 5 nM, apixaban 0 to 10 nM, 0.1 nM FXa mixture.
Target sequence in this assay (P00742 41-179 limits assumed): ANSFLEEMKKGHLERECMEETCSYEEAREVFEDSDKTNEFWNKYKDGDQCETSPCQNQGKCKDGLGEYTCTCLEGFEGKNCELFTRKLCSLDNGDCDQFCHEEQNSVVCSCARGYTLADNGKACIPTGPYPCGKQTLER
Target sequence in this assay (P00742 235-488 limits assumed): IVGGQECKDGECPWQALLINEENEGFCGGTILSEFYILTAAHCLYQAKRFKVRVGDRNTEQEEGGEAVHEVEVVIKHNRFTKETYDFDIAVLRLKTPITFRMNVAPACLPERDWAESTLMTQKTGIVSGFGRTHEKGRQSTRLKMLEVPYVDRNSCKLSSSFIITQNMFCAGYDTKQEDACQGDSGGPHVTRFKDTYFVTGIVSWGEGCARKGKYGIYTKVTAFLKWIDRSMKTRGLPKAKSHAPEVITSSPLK
Target sequence in this assay (P12259 29-737 partner limits assumed): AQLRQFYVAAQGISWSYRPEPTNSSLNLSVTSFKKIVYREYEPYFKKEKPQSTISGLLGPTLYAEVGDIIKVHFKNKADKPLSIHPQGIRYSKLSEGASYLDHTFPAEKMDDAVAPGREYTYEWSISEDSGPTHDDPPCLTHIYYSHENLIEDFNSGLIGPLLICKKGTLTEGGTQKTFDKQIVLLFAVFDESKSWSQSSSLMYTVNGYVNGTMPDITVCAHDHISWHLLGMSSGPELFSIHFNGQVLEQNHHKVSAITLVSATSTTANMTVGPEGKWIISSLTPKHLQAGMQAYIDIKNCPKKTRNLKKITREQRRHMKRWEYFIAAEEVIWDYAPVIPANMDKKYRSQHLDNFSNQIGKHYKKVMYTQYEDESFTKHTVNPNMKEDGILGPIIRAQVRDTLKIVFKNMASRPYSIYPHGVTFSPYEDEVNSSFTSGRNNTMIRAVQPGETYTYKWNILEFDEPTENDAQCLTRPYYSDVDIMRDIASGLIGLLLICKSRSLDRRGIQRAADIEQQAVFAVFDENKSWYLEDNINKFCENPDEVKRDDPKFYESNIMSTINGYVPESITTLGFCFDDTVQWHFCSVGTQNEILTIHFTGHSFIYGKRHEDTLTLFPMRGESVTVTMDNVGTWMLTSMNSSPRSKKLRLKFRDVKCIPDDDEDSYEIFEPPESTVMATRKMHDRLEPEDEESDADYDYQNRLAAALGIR
Target sequence in this assay (P12259 1574-2224 partner limits assumed): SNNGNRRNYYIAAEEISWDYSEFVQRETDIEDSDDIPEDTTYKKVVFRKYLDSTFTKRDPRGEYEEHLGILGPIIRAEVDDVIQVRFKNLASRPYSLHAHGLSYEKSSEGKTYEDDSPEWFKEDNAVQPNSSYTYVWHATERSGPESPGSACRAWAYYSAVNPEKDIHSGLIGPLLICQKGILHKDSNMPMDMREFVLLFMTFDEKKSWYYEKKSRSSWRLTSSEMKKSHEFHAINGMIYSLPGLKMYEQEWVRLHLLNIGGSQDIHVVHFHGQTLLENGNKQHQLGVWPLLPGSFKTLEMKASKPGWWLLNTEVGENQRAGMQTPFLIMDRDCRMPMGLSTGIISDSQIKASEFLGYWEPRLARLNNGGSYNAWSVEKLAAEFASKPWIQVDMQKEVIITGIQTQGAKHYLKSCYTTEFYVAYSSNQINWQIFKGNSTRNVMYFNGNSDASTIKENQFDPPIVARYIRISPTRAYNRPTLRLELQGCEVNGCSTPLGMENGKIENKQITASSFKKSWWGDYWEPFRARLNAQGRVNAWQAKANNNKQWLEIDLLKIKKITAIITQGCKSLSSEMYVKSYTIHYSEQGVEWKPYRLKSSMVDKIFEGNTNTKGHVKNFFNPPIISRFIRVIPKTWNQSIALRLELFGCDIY
For assay [2], the target named is T1, FXa. The experiment in a line: Flu-II cleavage by residual FXa in individual plasma samples. As to conditions: citrated plasma from four individuals; rivaroxaban 0 to 5 nM, apixaban 0 to 10 nM.
Target sequence in this assay (P00742 41-179 limits assumed): as the sequence (P00742 41-179 limits assumed) above
Target sequence in this assay (P00742 235-488 limits assumed): as the sequence (P00742 235-488 limits assumed) above
Target sequence in this assay (P12259 29-737 partner limits assumed): as the sequence (P12259 29-737 partner limits assumed) above
Target sequence in this assay (P12259 1574-2224 partner limits assumed): as the sequence (P12259 1574-2224 partner limits assumed) above
In assay [3] the target is T1, FXa. The experiment in a line: Flu-II cleavage by residual FXa in whole blood. The following applies: citrated whole blood, 0 to 100 nM in blood (2 nM final, 50-fold dilution).
Target sequence in this assay (P00742 41-179 limits assumed): as the sequence (P00742 41-179 limits assumed) above
Target sequence in this assay (P00742 235-488 limits assumed): as the sequence (P00742 235-488 limits assumed) above
Target sequence in this assay (P12259 29-737 partner limits assumed): as the sequence (P12259 29-737 partner limits assumed) above
Target sequence in this assay (P12259 1574-2224 partner limits assumed): as the sequence (P12259 1574-2224 partner limits assumed) above
Experimental: To test whether Flu-II cleavage by residual FXa can be measured in whole blood, citrated blood was collected to be used in the assay. […] A mixture (50 μL) containing 2 μL of whole blood containing varying levels of the DOACs (0 to 100 nM), 0.4 μM Flu-II, and 2 μM hirudin was monitored with FlexStation 3 fluorescent plate reader as described above. Again after one minute of equilibration, 50 μL of a mixture containing 0.1 nM FXa, 10 nM FVa, 50 μM PCPS, and 20 mM CaCl2 was added and mixed by instrument trituration. The initial rates of fluorescence change was then measured and plotted with respect to the final DOAC concentration in the reaction mixture, which results in a 1:50 dilution.
Assay [4] addresses T1, FXa. Put plainly: Flu-II cleavage by residual FXa in plasma with LMWH. As to conditions: normal human pooled plasma, LMWH 0 to 1 unit/mL final.
Target sequence in this assay (P00742 41-179): as the sequence (P00742 41-179 limits assumed) above
Target sequence in this assay (P00742 235-488): as the sequence (P00742 235-488 limits assumed) above
Target sequence in this assay (P01008 33-464 partner): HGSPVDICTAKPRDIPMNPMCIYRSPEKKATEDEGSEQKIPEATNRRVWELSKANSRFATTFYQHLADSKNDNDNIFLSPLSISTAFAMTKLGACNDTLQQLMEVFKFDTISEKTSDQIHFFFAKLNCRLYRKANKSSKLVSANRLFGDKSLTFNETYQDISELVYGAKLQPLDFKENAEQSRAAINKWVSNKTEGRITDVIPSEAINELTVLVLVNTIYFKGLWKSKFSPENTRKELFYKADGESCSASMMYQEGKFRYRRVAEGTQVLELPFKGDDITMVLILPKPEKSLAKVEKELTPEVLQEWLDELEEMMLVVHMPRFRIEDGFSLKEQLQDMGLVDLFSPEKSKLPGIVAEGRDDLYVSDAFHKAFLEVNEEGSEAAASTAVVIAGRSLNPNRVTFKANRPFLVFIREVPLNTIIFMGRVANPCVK

As to `O=C(NC[C@H]1CN(c2ccc(N3CCOCC3=O)cc2)C(=O)O1)c1ccc(Cl)s1` [rivaroxaban], the “overall inhibition of total activity (rate of Flu-II cleavage)” value at FXa [1] was approximately 85%. Also, the “maximal inhibition of total FXa activity” value at FXa [2] is given as approximately 80%. In addition, the “maximal inhibition (initial rate of Flu-II cleavage)” value on FXa [3] is listed as approximately 50%.

Take dalteparin: the “response of rate of Flu-II cleavage to levels of LMWH” value on FXa [4] was “sensitive to the levels of LMWH”.
